Measured values from patent US20170320939A1, “COLL2-1 PEPTIDE AND ITS NITRATED FORM AS THERAPEUTIC TARGETS FOR OSTEOARTHRITIS TREATMENT” (Université de Liège, priority 2014, published 2017).

Columns and labels:
[1] = tested on: OA synovial fibroblast cells; test: Intracellular H2O2 production in OA synovial fibroblast cells; type: cell-based, human
Protocol: 1.1 Patients. Synovial tissue samples were obtained from 10 patients (8 women, 2 man; mean age 70 +/−6 years) with osteoarthritis (OA) of the knee at the time of total knee joint replacement surgery. All the subjects provided their informed consent.
1.2 Isolation and culture of synovial cells. Synovium biopsies were digested is with collagenase from Clostridium histolyticum, Type IA (1 mg/ml) (Sigma-Aldrich, Saint-Louis, USA) and 0.25% trypsin (Sigma Aldrich, Saint Louis, USA) with 0.68 mM EDTA in Tris buffer 0.1M, pH 7.4 in complete medium (CM) (DMEM (Dulbecco's Modified Eagle's Medium) Low Glucose supplemented with 10 mM HEPES, 100 U/ml penicillin, 100 μg/ml streptomycin, 2 mM glutamine and 10% fetal calf serum (Lonza, Verviers, Belgium)) for 1 hour at 37° C. The cells suspensions were passed through a 70-μm filter to remove any undigested tissue. The filtered cells suspensions were then collected by centrifugation at 800 g and were cultured in culture flasks. After 24 hours, medium was changed to eliminate non adherent cells. Synovial fibroblasts cells (SFC) were used after three passages.
1.3 Treatment of synovial fibroblast cells. Cells were seeded into a six-well plate at the density of 2×10^5 cells/well in 2 ml of CM. When the cells reached confluence, the CM was replaced with 1% serum medium for 24 h to keep the cells quiescent. Cells were incubated for 24 hours with or without peptides Coll2-1 (^108HRGYPGLDG^116; 0.45 and 4.5 nmol) or Coll2-1NO2 (^108HRGYPGLDG-NO2^116; 4 and 40 pmol) at a range of concentrations found in the blood of osteoarthritic patients.
1.5 Intracellular H2O2 and O2^∘^− productions. Levels of intracellular superoxide anion (O2^∘^−) and hydrogen peroxide (H2O2) were assessed spectrofluorimetrically by oxidation of specific probes: dihydroethidium (Molecular Probes, Leiden, The Netherlands) and H2DCFH-DA (Molecular Probes, Leiden, The Netherlands) respectively. Synovial cells seeded on 96-well plates (8×10^3 cells per well) were washed once with phosphate-buffered saline and then incubated with 50 μL of phosphate-buffered saline containing either 250 μM dihydroethidium or 200 μM H2DCFH-DA. The fluorescence intensity was measured every hour for 6 hours. The levels of O2^∘^− or H2O2 are expressed in arbitrary unit/living cell. The numbers of adherent cells were measured by crystal violet assay.

female Lewis rats = test: In-vivo study, S.C. injection compared to CIA (collagen induced arthritis) model; details: for arthritis visual score, difference versus saline (Group 7): D17
Protocol: An in-vivo study was performed to evaluate the potential immunizing effect of Coll2-1 peptide. This effect was evaluated in comparison with two validated models of rheumatoid arthritis: CIA (Collagen induced arthritis) and SCW (Streptococcal cell walls). The peptide has been injected once subcutaneous, at the base of the tail (S.C.—evaluation of systemic inflammation) or intra-articular (I.A.—evaluation of mono-articular inflammation) in female Lewis rats. Naïve controls (saline) were considered. Animals were euthanized 21 or 28 days after injection.
All animals (n=108 females; 96.0-129.7 gr) included in the study were identified by a unique chip. They were randomly distributed into 8 study groups (n=16/group except nave controls n=6/group, n=8/each time point) before induction (DO) based on their body weight (FIG. 1). • Injected controls (2 groups) • Group 1: bovin type II collagen (CIA)—S.C. (n=16) • Group 2: streptococcal cell wail (SCW)—I.A. (n=16) • Test groups (4 groups) • Group 3: Peptide dose 200 μg/100 μl—S.C. (n=16) • Group 4: Peptide dose 20 μg/100 μl—S.C. (n=16) • Group 5: Peptide dose 5 μg/50 μl—I.A. (n=16) • Group 6: Peptide dose 0.5 μg/50 μl—I.A. (n=16) • Naïve controls (2 groups) • Group 7: saline S.C. (n=6) • Group 8: saline I.A. (n=6)
Two injection ways were chosen to evaluate the potential effect of the peptide: intra-articular (I.A.) and subcutaneous (S.C.), two route classically used in the art.
Coll2-1 peptide was administered either I.A. under a 50 μL volume into the right knee or S.C. under a 100 μL volume at the base of the tail.
SCW was administered I.A. into the right knee under a 50 μL volume. Bovine type II collagen (CIA) was administered under 100 μL volume at the base of the tail.
Two doses of the Coll2-1 peptide were tested in both conditions.
It was administered S.C. at 200 and 20 μg under 100 μL.
Coll2-1 peptide was administered once (DO).
Joint was considered arthritic when significant signs of redness and/or swelling was noted. Each paw was evaluated with a visual score (0-3) • 0: normal, no joint inflammation • 1: large joint inflammation • 2: medium joint inflammation • 3: small joint (distal) inflammation
A set of 4 values were recorded on each evaluation day. The 4 values were summed for analysis.
Right and left knees diameter were measured using a digital caliper.
Animals were euthanized 21 or 28 days after injection (D0). They were anesthetized with a subcutaneous injection of a Ketamin/Medetomidine mix and further euthanized by exsanguination.
Both entire knees from each animal were processed for histological analysis, They were decalcified in a HCl/EDTA mix (DC2, Qpath, VWR Belgium) for the appropriate time before inclusion in paraffin. Three frontal sections (5 μm) of each compartment were done 200 μm apart in the weight bearing zone using a microtome. Slides were stained according to a standard Safranin-O/Fast green protocol.
Slides were evaluated under a light microscope. Each slide was score for: • Infiltration of inflammatory cells in synovial tissue (0-3) • Inflammatory cells in the joint cavity (exudate) (0-3) • Cartilage proteoglycan depletion (0-3) • Loss of articular cartilage (0-3) • Bone erosion (0-3).
Infiltration of inflammatory cells in synovial tissue and inflammatory cells in the joint cavity were considered together (sum of the scores) as inflammatory parameters for the analysis of the detailed criteria.
Statistical analysis was performed with the appropriate test using GraphPad. • Visual score and evaluations (knee diameter measurements) were analyzed with a two way ANOVA followed, if positive, by Tukey's multiple comparison test. Graphs represented the mean of each group at each evaluated time point. • Histological scores were analyzed with a Kruskal Wallis for non-parametric values followed, if positive, by a Dunn's multiple comparison test. Graphs presented as box and whisker plots. Exact p values were provided and asterisks representation were also performed.

Which “intracellular production of H2O2” value ([1]; Coll2-1 at 4.5 nmol, 24 hours) does the source give for HRGYPGLDG [Coll2-1] here?
The value was “significantly increased”.

What about the H2O2 production ([1]; increasing doses of Coll2-1 peptide) of the same sequence?
The H2O2 production was “increase”.

And the “inflammatory criteria (histology)” value (female Lewis rats; Coll2-1 20 μg S.C. (Gr4), 028)?
The value was “Significant increase”.

What about the cartilage degradation criteria (female Lewis rats; Coll2-1 20 μg S.C. (Gr4), D28) of the same sequence?
Its cartilage degradation criteria is “Significant increase”.

What about the “loss of matrix proteoglycan” value (female Lewis rats; Coll2-1 20 μg S.C. (Gr4), D28) of the same sequence?
Its value is “Significant increase”.

And the “subchondral bone modification score” value (female Lewis rats; Coll2-1 20 μg S.C. (Gr4), D28)?
Its value is “Significant increase”.

And the “arthritis visual score, difference versus bovine type II collagen (Group 1)” value (female Lewis rats; Coll2-1 20 μg S.C. (Group 4), D21)?
Its value is “statistically different”.

And the “global histological score, right and left knees together, versus saline (Group 7)” value (female Lewis rats; Coll2-1 20 μg S.C. (Group 4), D28)?
The value was “significant increase”.

What about the “arthritis visual score, difference versus saline (Group 7)” value (female Lewis rats; Coll2-1 20 μg/100 μl S.C. (Group 4)) of the same sequence?
Its value is “statistically significant”.

What about the “inflammatory criteria (histology)” value (female Lewis rats; Coll2-1 200 μg S.C. (Gr3), D21) of the same sequence?
Its value is “Significant increase”.

And the “subchondral bone modification score” value (female Lewis rats; Coll2-1 200 μg S.C. (Gr3), D21)?
The value was “Significant increase”.

What about the cartilage degradation criteria (female Lewis rats; Coll2-1 200 μg S.C. (Gr3), D28) of the same sequence?
The cartilage degradation criteria was “Significant increase”.

And the “loss of matrix proteoglycan” value (female Lewis rats; Coll2-1 200 μg S.C. (Gr3), D28)?
The value was “Significant increase”.

And the “global histological score, right and left knees together, versus saline (Group 7)” value (female Lewis rats; Coll2-1 200 μg S.C. (Group 3), D21)?
The value was “significant increase”.

What about the “arthritis visual score, difference versus saline (Group 7)” value (female Lewis rats; Coll2-1 200 μg/100 μl S.C. (Group 3)) of the same sequence?
The value was “statistically significant”.

What about the “histological score (conclusion)” value (female Lewis rats; collagen arthritis model, S.C. injection) of the same sequence?
Its value is “increase”.

And the arthritis visual score (female Lewis rats; single S.C. injection at the base of the tail, four limbs, D0 to D28)?
Its arthritis visual score is “induced an increase”.
